{"source": "ChEMBL document CHEMBL1201862", "about": "“PubChem BioAssay data set” (2004)", "key": {"Vero": {"system": "Vero", "assay": "host cell cytotoxicity of antiviral hits, dose response, cytotoxicity control for West Nile virus antiviral project, secondary assay (AID 1650)", "format": "functional", "conditions": "Chlorocebus sabaeus"}, "HeLa": {"system": "HeLa", "assay": "HeLa cell cytotoxicity, dose response, cytotoxicity control, ATP luminescence, cherry-pick samples (AID 687004)", "format": "functional, cell-based", "conditions": "Homo sapiens"}, "Aspartyl aminopeptidase": {"biological_target": "T1, Aspartyl aminopeptidase (Plasmodium falciparum 3D7, UniProt Q8I2J3)", "T1 sequence (Q8I2J3 whole entry)": "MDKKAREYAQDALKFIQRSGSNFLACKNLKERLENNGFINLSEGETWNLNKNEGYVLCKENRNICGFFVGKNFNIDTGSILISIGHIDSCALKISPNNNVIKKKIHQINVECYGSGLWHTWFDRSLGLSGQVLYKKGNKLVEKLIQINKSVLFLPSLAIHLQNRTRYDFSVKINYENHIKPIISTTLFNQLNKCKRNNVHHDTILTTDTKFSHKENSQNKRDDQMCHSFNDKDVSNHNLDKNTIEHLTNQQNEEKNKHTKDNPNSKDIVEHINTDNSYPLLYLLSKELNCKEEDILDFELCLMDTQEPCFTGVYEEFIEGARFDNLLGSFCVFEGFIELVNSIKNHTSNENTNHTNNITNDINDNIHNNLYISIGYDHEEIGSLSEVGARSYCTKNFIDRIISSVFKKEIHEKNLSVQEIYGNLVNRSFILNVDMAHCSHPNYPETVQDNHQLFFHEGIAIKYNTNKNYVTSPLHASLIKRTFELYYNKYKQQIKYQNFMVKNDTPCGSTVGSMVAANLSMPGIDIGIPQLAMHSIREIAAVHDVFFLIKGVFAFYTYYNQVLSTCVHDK", "assay": "Counterscreen for inhibitors of M1 and M17 aminopeptidases: QFRET-based biochemical high throughput dose response assay for inhibitors of the Plasmodium falciparum M18 Aspartyl Aminopeptidase (PFM18AAP). [Related PubChem assays: 1619 (Screening assay (M17LAP inhibitors).), 1445 (Screening assay (M1AAP inhibitors).)]"}, "Leucine aminopeptidase": {"biological_target": "T2, Leucine aminopeptidase (Plasmodium falciparum 3D7, UniProt Q8IL11)", "T2 sequence (Q8IL11 whole entry)": "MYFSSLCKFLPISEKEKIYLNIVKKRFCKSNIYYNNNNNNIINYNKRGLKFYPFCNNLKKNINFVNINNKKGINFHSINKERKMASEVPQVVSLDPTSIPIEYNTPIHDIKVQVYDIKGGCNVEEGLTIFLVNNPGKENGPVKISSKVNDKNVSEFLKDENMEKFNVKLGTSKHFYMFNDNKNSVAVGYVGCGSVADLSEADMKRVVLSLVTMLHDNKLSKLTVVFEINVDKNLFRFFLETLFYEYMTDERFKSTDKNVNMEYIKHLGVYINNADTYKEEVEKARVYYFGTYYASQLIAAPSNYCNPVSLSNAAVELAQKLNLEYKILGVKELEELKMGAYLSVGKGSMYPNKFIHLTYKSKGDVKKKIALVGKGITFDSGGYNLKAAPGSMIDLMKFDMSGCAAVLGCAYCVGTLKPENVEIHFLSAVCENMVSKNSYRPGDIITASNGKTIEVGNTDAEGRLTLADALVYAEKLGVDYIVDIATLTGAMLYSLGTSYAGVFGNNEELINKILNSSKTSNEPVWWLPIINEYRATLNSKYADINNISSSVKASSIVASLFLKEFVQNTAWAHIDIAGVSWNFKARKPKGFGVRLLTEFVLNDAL", "assay": "P. falciparum M17LAP inhibitors, primary screen, biochemical, fluorogenic H-Leu-NHMec substrate, 1536-well (AID 1619)", "format": "functional"}, "Procathepsin L": {"biological_target": "Procathepsin L (Homo sapiens, UniProt P07711)", "sequence (P07711 whole entry)": "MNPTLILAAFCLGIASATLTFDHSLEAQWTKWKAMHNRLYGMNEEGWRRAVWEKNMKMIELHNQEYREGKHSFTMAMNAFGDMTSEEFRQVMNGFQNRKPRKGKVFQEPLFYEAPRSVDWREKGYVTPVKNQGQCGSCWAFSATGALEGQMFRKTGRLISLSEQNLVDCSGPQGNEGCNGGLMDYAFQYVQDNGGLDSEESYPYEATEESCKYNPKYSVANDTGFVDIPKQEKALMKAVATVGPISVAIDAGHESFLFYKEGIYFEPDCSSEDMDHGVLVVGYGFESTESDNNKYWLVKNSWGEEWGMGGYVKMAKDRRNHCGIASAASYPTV", "assay": "cathepsin L inhibitors, dose response, counter-screen for M1/M17 aminopeptidase inhibitor project, biochemical, QFRET, 1536-well (AID 2214)"}, "[1]": {"assay": "cytotoxicity toward NIH3T3 fibroblasts, dose response, counter-screen, cell-based, ATP luminescence, mouse fibroblasts (AID 2010);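 further: cells exposed to compound for about 90 hours before reading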", "format": "functional"}, "[2]": {"assay": "inhibitors of intracellular T. cruzi replication, confirmation, NIH3T3 host cells, beta-gal luminescence (AID 2044);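 further: luminescent beta-galactosidase reporter signal from transgenic T. cruzi replicating inside host cells; inhibitors lower the luminescence signal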", "format": "functional, cell-based"}, "[3]": {"assay": "ADAM10 protease inhibitors, dose response, selectivity assay for ADAM17 exosite inhibitor project, biochemical, FRET peptide substrate, recombinant human ADAM10 (AID 743259);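 further: ADAM10 enzyme cleaving a FRET peptide substrate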"}, "Streptokinase A": {"biological_target": "T3, Streptokinase A (Streptococcus pyogenes serotype M1, UniProt P10520)", "T3 sequence (P10520 whole entry)": "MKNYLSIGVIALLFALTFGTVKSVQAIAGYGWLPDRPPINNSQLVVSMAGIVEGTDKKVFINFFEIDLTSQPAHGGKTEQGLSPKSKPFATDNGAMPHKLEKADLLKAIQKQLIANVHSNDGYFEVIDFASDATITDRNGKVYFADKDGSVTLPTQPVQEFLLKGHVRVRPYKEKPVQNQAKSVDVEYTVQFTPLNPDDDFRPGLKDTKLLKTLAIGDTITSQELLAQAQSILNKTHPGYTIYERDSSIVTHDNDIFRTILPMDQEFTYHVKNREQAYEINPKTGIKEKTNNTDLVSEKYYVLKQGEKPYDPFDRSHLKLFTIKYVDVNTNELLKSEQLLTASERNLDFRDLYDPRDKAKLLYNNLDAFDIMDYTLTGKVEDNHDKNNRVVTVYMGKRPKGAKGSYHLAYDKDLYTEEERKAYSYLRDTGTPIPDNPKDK", "assay": "S. pyogenes streptokinase expression inhibitors, potency, dose response, plasminogen activation absorbance, OD405 (AID 1914);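 further: secreted streptokinase activity via plasminogen activation per viability signal from cell pellet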", "format": "functional, Streptococcus pyogenes M1 GAS"}, "[4]": {"biological_target": "Disintegrin and metalloproteinase domain-containing protein 17 (Homo sapiens, UniProt P78536)", "sequence (P78536 whole entry, the tested form may be a part)": "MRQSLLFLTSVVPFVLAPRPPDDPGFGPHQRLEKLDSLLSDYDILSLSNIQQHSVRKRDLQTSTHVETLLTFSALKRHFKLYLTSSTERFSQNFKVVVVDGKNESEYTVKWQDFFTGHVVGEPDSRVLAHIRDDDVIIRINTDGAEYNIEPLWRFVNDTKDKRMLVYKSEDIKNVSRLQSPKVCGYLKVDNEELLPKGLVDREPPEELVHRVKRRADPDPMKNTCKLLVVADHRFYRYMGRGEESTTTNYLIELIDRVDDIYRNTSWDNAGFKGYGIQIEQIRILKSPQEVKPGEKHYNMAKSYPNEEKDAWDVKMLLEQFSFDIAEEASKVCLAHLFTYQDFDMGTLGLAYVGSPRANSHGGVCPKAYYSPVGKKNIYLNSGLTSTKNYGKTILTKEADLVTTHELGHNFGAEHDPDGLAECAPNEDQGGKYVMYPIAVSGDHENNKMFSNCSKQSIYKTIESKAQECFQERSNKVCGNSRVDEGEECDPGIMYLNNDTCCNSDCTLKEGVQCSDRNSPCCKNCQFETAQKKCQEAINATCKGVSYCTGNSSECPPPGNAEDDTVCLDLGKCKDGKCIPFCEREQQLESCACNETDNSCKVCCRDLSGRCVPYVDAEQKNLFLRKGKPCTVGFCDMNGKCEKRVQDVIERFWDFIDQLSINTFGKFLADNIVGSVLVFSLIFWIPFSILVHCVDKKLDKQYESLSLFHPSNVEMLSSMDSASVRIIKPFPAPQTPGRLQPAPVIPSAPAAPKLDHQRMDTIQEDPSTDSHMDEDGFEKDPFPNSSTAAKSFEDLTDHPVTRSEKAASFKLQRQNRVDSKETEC", "assay": "exosite inhibitors of ADAM17, dose response, biochemical (AID 743260)"}, "[5]": {"system": "Streptococcus sp. 'group A'", "assay": "growth inhibition of control SK(-) GAS strain, dose response, counter-screen for streptokinase expression inhibitor project, luminescence, kanamycin, BacTiterGlo, confirmation (AID 1900)", "format": "functional, organism-based"}, "Streptococcus": {"system": "Streptococcus", "assay": "Group A Streptococcus viability loss, dose response, counter-screen for streptokinase expression inhibitor project, luminescence, BacTiterGlo (AID 1915);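 further: potency for reduction of bacterial viability or growth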", "format": "functional, organism-based"}, "[6]": {"biological_target": "T4, Apoptotic protease-activating factor 1 (Homo sapiens, UniProt O14727)", "T4 sequence (O14727 whole entry)": "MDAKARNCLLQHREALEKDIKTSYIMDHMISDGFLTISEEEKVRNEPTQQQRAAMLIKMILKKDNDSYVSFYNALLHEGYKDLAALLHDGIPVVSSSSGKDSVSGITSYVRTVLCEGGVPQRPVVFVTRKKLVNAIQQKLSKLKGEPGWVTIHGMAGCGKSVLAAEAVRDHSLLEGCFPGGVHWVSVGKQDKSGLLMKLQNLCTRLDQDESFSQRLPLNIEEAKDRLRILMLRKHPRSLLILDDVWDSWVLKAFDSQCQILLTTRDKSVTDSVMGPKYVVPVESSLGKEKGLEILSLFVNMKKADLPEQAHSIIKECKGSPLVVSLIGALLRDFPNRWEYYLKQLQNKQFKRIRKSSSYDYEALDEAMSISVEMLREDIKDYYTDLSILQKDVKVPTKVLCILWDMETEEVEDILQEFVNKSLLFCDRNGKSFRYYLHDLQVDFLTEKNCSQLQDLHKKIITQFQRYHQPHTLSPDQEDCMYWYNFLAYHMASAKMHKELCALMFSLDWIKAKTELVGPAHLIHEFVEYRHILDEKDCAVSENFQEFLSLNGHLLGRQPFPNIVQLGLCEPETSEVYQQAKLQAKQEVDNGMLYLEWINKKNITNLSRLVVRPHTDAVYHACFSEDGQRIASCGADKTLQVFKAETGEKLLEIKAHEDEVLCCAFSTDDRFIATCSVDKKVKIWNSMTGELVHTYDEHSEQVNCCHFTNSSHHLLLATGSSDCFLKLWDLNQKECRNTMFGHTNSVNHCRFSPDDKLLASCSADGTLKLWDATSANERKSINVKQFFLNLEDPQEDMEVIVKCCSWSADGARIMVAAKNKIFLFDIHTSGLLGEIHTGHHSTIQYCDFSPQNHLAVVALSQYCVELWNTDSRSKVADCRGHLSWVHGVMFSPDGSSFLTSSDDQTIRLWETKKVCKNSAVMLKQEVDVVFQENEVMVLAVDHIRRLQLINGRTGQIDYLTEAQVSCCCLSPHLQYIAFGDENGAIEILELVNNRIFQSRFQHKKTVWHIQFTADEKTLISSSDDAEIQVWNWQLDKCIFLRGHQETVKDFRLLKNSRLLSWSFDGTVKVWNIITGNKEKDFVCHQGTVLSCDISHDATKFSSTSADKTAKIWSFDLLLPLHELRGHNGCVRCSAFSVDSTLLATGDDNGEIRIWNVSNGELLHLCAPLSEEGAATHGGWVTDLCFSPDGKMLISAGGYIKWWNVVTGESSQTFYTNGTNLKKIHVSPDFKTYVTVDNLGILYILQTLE", "format": "functional"}}, "note": "The source made the active and inactive calls.", "data": [{"smiles": "O=C1COc2ccc(C(=O)CSc3nc4ccccc4c(=O)n3-c3ccc(Cl)c(Cl)c3)cc2N1", "values": [{"measurement": "CC50", "setting": "Vero", "value": "16.6 µM (active)"}]}, {"smiles": "COc1cc(C(=O)Oc2ccccc2N)cc(OC)c1OC", "values": [{"measurement": "AC50", "setting": "HeLa", "value": "> 52 µM (inactive)"}]}, {"smiles": "O=C(CCN1C(=O)/C(=C/c2ccc(F)cc2)SC1=S)N[C@@H](CO)Cc1ccccc1", "values": [{"measurement": "CC50", "setting": "Vero", "value": "49.9 µM (active)"}]}, {"smiles": "CCc1ccc(Nc2nnc(SC3CCOC3=O)s2)cc1", "note": "(stereo unspecified)", "values": [{"measurement": "IC50", "setting": "Aspartyl aminopeptidase", "value": "> 73.5 µM (not active)"}, {"measurement": "IC50", "setting": "Leucine aminopeptidase", "value": "2.64 µM (active)"}, {"measurement": "IC50", "setting": "Procathepsin L", "value": "> 59.6 µM (not active)"}]}, {"smiles": "CC(C)(CN=C(S)NCCc1ccccc1)CN=C(S)NCCc1ccccc1", "values": [{"measurement": "CC50", "setting": "Vero", "value": "23.7 µM (active)"}, {"measurement": "EC50", "setting": "[1]", "value": "> 60 µM (not active)"}, {"measurement": "EC50", "setting": "[2]", "value": "3.35 µM (active)"}]}, {"smiles": "COc1ccc(OC)c(NC(=O)C2C(C(=O)O)C3(Cl)C(Cl)=C(Cl)C2(Cl)C3(Cl)Cl)c1", "note": "(stereo unspecified)", "values": [{"measurement": "IC50", "setting": "Aspartyl aminopeptidase", "value": "> 73.5 µM (not active)"}, {"measurement": "IC50", "setting": "Leucine aminopeptidase", "value": "< 1 µM (active)"}, {"measurement": "IC50", "setting": "Procathepsin L", "value": "> 59.6 µM (not active)"}]}, {"smiles": "CC1CCCCN1C(=O)CSc1nc(C2CC2)nc2c1cnn2-c1ccccc1", "note": "(stereo unspecified)", "values": [{"measurement": "AC50", "setting": "HeLa", "value": "> 52 µM (inactive)"}]}, {"smiles": "COc1ccc(NC(S)=Nc2nc(CC(=O)Nc3ccccc3OC)cs2)cc1", "values": [{"measurement": "IC50", "setting": "[3]", "value": "> 2.58 µM (active)"}, {"measurement": "EC50", "setting": "Streptokinase A", "value": "> 150 µM (not active)"}, {"measurement": "IC50", "setting": "[4]", "value": "> 69.5 µM (inactive)"}, {"measurement": "EC50", "setting": "[5]", "value": "6.09 µM (active)"}, {"measurement": "EC50", "setting": "Streptococcus", "value": "17.3 µM (active)"}]}, {"smiles": "COC(=O)C1=C(c2ccc(F)cc2OCc2ccccc2)C[C@@H]2CC[C@H]1N2C(=O)NCc1cccc(C(F)(F)F)c1", "values": [{"measurement": "IC50", "setting": "[3]", "value": "> 69.5 µM (inactive)"}, {"measurement": "IC50", "setting": "[4]", "value": "> 69.5 µM (inactive)"}]}, {"smiles": "COCCN(Cc1ccccc1)C(=O)c1cccc(S(=O)(=O)N2CCN(c3ccccc3)CC2)c1", "values": [{"measurement": "IC50", "setting": "[6]", "value": "> 100 µM (inactive)"}]}]}
